The record followed here is US8906935B2, “Thiazolyl- and oxazolyl-isoquinolinones and methods for using them” (priority 2008, dated 2014).

Counter-ions that a name gives are not always drawn.

The target of this assay is T1, hrPARP-1 (human recombinant) (Homo sapiens, UniProt P09874).
T1 construct: purchased Trevigen
T1 sequence (P09874 whole entry): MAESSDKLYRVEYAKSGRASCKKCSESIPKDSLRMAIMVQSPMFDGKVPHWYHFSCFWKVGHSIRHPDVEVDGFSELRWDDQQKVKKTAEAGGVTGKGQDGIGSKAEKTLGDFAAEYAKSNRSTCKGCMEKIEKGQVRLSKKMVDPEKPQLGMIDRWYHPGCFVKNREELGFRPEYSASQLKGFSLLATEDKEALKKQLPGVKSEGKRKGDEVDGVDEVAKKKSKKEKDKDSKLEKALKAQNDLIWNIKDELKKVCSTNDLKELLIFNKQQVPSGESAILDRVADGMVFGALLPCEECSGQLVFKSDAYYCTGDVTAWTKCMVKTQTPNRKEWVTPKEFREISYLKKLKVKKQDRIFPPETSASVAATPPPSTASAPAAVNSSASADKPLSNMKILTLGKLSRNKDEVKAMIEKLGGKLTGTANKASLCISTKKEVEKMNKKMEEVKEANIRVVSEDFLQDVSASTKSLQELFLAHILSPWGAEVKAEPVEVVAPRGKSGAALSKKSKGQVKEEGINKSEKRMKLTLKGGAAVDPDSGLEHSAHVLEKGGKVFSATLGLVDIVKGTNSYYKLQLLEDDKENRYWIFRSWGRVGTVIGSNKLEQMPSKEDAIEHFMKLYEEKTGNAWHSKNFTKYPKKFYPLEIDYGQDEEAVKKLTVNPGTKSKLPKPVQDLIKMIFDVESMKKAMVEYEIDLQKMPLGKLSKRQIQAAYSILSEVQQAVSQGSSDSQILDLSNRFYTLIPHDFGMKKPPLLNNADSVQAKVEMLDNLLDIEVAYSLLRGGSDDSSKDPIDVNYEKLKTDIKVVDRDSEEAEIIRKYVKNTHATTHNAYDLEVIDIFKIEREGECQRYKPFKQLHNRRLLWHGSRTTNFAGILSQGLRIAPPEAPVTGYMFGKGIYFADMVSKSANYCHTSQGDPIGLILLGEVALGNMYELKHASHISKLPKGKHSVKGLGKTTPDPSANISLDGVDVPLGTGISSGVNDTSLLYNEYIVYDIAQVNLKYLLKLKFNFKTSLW
The assay is described as follows: Functional assessment of human PARP-1 enzymatic activity. Type of assay: biochemical. The note with it: 1 U hrPARP-1, 15 μg/mL activated DNA, 5 μM NAD+, 20 min room temperature, fluorescence readout. Here is the method:
Functional Assessment of Human PARP-1 Enzymatic Activity
hrPARP-1 (human recombinant, Trevigen), Activated DNA (Sigma), 6(5H)-phenanthridinone (PND), (Sigma), NAD+ (Calbiochem), PARP-1 assay buffer (50 mM Tris, 2 mM MgCl2, pH 8.0), 20% acetophenone in EtOH, 2 M KOH 88% formic acid, 110° C. oven, Flexstation Plate Reader.
Compound plates were prepared by making a series of 1:3 dilutions for each tested compound, 10 steps of each at 20 μL in DMSO starting from a concentration of 5 mM. NAD^+ (39 μL of a 6.4 μM solution) were added to each well of a 96-well flat bottom fluorescent assay plate. Test compound (1 μL) was added to each well. To initiate the reaction, 10 μL of PARP (contains 5 U of PARP and 75 μg/mL activated DNA) was added with a final 1 U hrPARP-1, 15 μg/mL activated DNA and 5 μM of NAD^+. The highest concentration used for test compounds was 100 μM. The plates were incubated at room temperature on a shaker, After 20 min, 20 μL of 2 M KOH and 20 μL of 20% acetophenone were added. The plate was incubated 10 min. at 4° C., and 90 μL of 88% formic acid was added. After incubating in a 110° C. oven for 5 min, the plate was cooled to room temperature and read of a Flexstation Plate Reader (excitation at 360 nm, emission at 445 nm).
LSW data analysis software was used to generate PARP-1 IC50s.
The IC50 is the concentration needed to halve the response being measured. In the case of `CN(C)Cc1nc2c([nH]c(=O)c3ccccc32)s1` [Example 1, 2-[(Dimethylamino)methyl][1,3]thiazolo[5,4-c]isoquinolin-5(4H)-one hydrochloride], the IC50 was 0.378 µM.
With `CN(C)CC#Cc1nc2c([nH]c(=O)c3ccccc32)s1` [Example 2, 2-[3-(Dimethylamino)prop-1-yn-1-yl][1,3]thiazolo[5,4-c]isoquinolin-5(4H)-one], the IC50 was 0.414 µM.
Take `CN(C)CCc1nc2c([nH]c(=O)c3ccccc32)s1` [Example 3, 2-(2-(Dimethylamino)ethyl)thiazolo[5,4-c]isoquinolin-5(4H)-one]: the IC50 was found to be 0.358 µM.
Consider `CN(C)Cc1nc2c([nH]c(=O)c3cccc(O)c32)s1` [Example 4, 2-((Dimethylamino)methyl)-9-hydroxythiazolo[5,4-c]isoquinolin-5(4H)-one], for which the IC50 stood at 0.099 µM.
In the case of `O=c1[nH]c2sc(CN3CCOCC3)nc2c2c(O)cccc12` [Example 5, 9-Hydroxy-2-(morpholin-4-ylmethyl)[1,3]thiazolo[5,4-c]isoquinolin-5(4H)-one] it was 0.0183 µM; in that of `O=c1[nH]c2sc(CN3CCCCC3)nc2c2c(O)cccc12` [Example 6, 9-Hydroxy-2-(piperidin-1-ylmethyl)[1,3]thiazolo[5,4-c]isoquinolin-5(4H)-one], 1.37 µM; in that of `O=c1[nH]c2sc(CN3CCCC3)nc2c2c(O)cccc12` [Example 7, 9-Hydroxy-2-(pyrrolidin-1-ylmethyl)[1,3]thiazolo[5,4-c]isoquinolin-5(4H)-one], 0.111 µM.
As for `CN(C)[C@@H]1CCN(Cc2nc3c([nH]c(=O)c4cccc(O)c43)s2)C1` [Example 8, 2-{[(3R)-3-(dimethylamino)pyrrolidin-1-yl]methyl}-9-hydroxy[1,3]thiazolo[5,4-c]isoquinolin-5(4H)-one], the IC50 came to 0.223 µM.
Turning to `O=c1[nH]c2sc(CN3CCCC4CCCCC43)nc2c2c(O)cccc12` (stereo not shown) [Example 9, 9-Hydroxy-2-(octahydroquinolin-1(2H)-ylmethyl)[1,3]thiazolo[5,4-c]isoquinolin-5(4H)-one], the IC50 was determined as 2.45 µM.
Take `C[C@@H]1CN(Cc2nc3c([nH]c(=O)c4cccc(O)c43)s2)C[C@H](C)O1` [Example 10, 2-{[(2R,6S)-2,6-Dimethylmorpholin-4-yl]methyl}-9-hydroxy[1,3]thiazolo[5,4-c]isoquinolin-5(4H)-one]: the IC50 amounted to 3.09 µM.
Turning to `CC1CCCN1Cc1nc2c([nH]c(=O)c3cccc(O)c32)s1` (stereo not shown) [Example 11, 9-Hydroxy-2-[(2-methylpyrrolidin-1-yl)methyl][1,3]thiazolo[5,4-c]isoquinolin-5(4H)-one], the IC50 was found to be 0.747 µM.
In the case of `O=c1[nH]c2sc(CN3CCC[C@@H]3C(F)(F)F)nc2c2c(O)cccc12` [Example 12, 9-Hydroxy-2-{[(2R)-2-(trifluoromethyl)pyrrolidin-1-yl]methyl}[1,3]thiazolo[5,4-c]isoquinolin-5(4H)-one], the IC50 was 3.5 µM.
Regarding `C[C@@H]1CCC[C@H](C)N1Cc1nc2c([nH]c(=O)c3cccc(O)c32)s1` [Example 13, 2-{[(2R,6S)-2,6-Dimethylpiperidin-1-yl]methyl}-9-hydroxy[1,3]thiazolo[5,4-c]isoquinolin-5(4H)-one], the IC50 was 1.5 µM.
